In patent US20260158009A1 (GENZYME CORPORATION, priority 2023, published 2026):

Legend:
[1] = target: T1, hRIPK1 (aa 1-375) fusion protein (Homo sapiens, UniProt Q13546); assay: ADP-Glo kinase assay: catalytic activity of RIPK1 (autophosphorylation, conversion of ATP to ADP); assay type: biochemical
T1 construct: hRIPK1 (aa 1-375) fusion protein
T1 sequence (Q13546 1-375): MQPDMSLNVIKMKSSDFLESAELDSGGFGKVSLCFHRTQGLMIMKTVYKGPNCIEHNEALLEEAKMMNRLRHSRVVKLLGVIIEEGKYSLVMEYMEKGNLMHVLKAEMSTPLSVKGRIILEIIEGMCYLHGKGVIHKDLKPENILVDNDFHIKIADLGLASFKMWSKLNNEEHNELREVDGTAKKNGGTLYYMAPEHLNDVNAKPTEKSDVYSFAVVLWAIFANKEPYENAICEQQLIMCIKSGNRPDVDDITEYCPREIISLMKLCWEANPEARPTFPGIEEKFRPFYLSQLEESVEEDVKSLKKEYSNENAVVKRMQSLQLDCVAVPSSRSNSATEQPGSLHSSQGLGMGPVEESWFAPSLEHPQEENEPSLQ
Description: The catalytic activity of RIPK1 was measured by monitoring the conversion of Adenosine triphosphate (ATP) to Adenosine diphosphate (ADP) due to autophosphorylation using an ADP-Glo kinase kit (Promega, catalog no. V9104).
In detail, 2 μl recombinantly produced hRIPK1 (aa 1-375) fusion protein (end concentration 3.6 μg/ml) and 2 μl compound (end concentration 33300-1.69 nM; DMSO end concentration 1%) were incubated for 30 minutes at room temperature and then 2 μl ATP (ADP Glo kit, end concentration 50 μM) were added. After another 240 minutes incubation at room temperature, 5 μl Promega ADP-Glo reagent I was added to quench the reaction and deplete unconsumed ATP. After an incubation period of 30 minutes, 10 μl Promega ADP-Glo detection reagent II was added resulting in conversion of ADP to ATP, which generates a light-reaction between luciferase and luciferin. Luminescence was quantified after 30 minutes with a Pherastar FS (BMG LABTECH, Ortenberg).
The adjustment was obtained by nonlinear regression using the Levenberg Marquardt algorithm.

U937 cells = assay: Cellular assay in U937 cells: activity of RIPK1 inhibitors on TNFα/zVAD.fmk-induced cell death (necroptosis), CellTiter 96 AQueous (MTS) readout; assay type: cell-based; settings: Homo sapiens, U-937
Source text: Upon TNF-Receptor I ligation, Ser/Thr kinase RIPK1 is recruited to a transient receptor complex 1. Upon modification of RIPK1 which promotes activation of RIPK1, complex IIb can form, that involves recruitment of RIPK3 and MLKL (mixed lineage-kinase domain-like protein) which then translocates from the cytosol to the plasma membrane to execute cell death (Cai, Z. et al, Nat. Cell Biol. (2014) 16:55-65).
Cell death was quantified in 96 well plates by determination of the amount of live cell using a CellTiter 96 AQueous reagent (Promega), a calorimetric method to measure the number of live cells by reducing tetrazolium compound [3-(4,5-dimethylthiazol-2-yl)-5-(3-carboxymethoxyphenyl)-2-(4-sulfophenyl)-2H-tetrazolium, inner salt; MTS] into formazan. Absorbance of formazan was read at 490 nm. The inhibitory activity of the test compound was quantified in a concentration response curve (CRC) experiment.
Compounds were obtained as 10 mM stock solutions and were diluted 1 to 10 volumes with DMSO to yield a 1 mM solution. From this solution 2 μl were diluted with 998 μl growth medium. 100 μl of 2 μM compound solution was further diluted sequentially with a dilution factor of 2.5 by adding 150 μl growth medium. A total of 10 concentrations were tested ranging from 10 μM to 0.26 nM or from 1 μM to 0.07 nM.
U937 cells were cultured in RPMI1640 Glutamax and 10% heat inactivated FBS. 50 μl cell suspension containing 1×10^6 cells/ml supplemented with 50 μM zVAD.fmk (Benzyloxycarbonyl-Val-Ala-Asp (OMe) fluoromethylketone) and 100 ng/ml recombinant human TNF[…] were dispensed in each well of a 96-well plate. 50 μl of compound dilutions (described in Cellular assay in U937 cells) were added and the cell suspension incubated overnight (18 to 24 hrs) at 37° C., 5% CO2 in a humidified atmosphere (95% rH). High (no compound) and low control (no TNF[…], zVAD.fmk) were tested with 7 replicates; all compound concentrations were tested in duplicates on each experimental plate.
CellTiter 96 Aqueous reagent was mixed (100 μl PMS (phenazine methosulfate) solution/2 ml MTS (3-(4,5-[…])-5-(3-carboxymethoxyphenyl)-2-(4-sulfophenyl)-2H-tetrazolium, inner salt) solution) and 20 μl were added per well. After 4 hrs incubation at 37° C. (5% CO2 95% rH) optical density was measured at 490 nm on a microplate reader (Tecan Infinite M1000).
The % inhibition is expressed as percentage of the maximal inhibition value obtained in the absence of TNFα/zVAD.fmc.

Structure (SMILES) | IC50 [1] [nM] | IC50 (U937 cells) [nM]
N#Cc1cc(F)cc([C@@H]2CCON2C(=O)[C@H]2CC[C@H](Cn3ccc4ccc(C(N)=O)cc43)CC2)c1 [compound 104, trans-1-((4-((S)-3-(3-cyano-5-fluorophenyl)isoxazolidine-2-carbonyl)cyclohexyl)methyl)-1H-indole-6-carboxamide] | 18 | 5
O=C([C@H]1CC[C@H](Cc2ccc(C3(O)COC3)cc2)CC1)N1OCC[C@H]1c1cnccn1 [compound 352, trans-[4-[[4-(3-hydroxyoxetan-3-yl)phenyl]methyl]cyclohexyl]-[(3S)-3-pyrazin-2-yl-1,2-oxazolidin-2-yl]methanone] | 30 | 58
CNC(=O)c1cc(F)cc(C[C@H]2CC[C@H](C(=O)N3OCC[C@H]3c3cncc(C#N)c3)CC2)c1 [compound 163, trans-3-[[4-[(3S)-3-(5-cyano-3-pyridyl)isoxazolidine-2-carbonyl]cyclohexyl]methyl]-5-fluoro-N-methyl-benzamide] | 5 | 10
Cc1nc2ccc(C[C@H]3CC[C@H](C(=O)N4OCC[C@H]4c4ccc(F)cc4)CC3)cn2n1 [compound 260, trans-[(3S)-3-(4-fluorophenyl)isoxazolidin-2-yl]-[4-[(2-methyl-[1,2,4]triazolo[1,5-a]pyridin-6-yl)methyl]cyclohexyl]methanone] | 32 | 25
O=C([C@H]1CC[C@H](Cc2cncc(F)c2)CC1)N1OCC[C@H]1c1cnccn1 [compound 147, trans-[4-[(5-fluoro-3-pyridyl)methyl]cyclohexyl]-[(3S)-3-pyrazin-2-ylisoxazolidin-2-yl]methanone] | 27 | 40
N#Cc1cc(C[C@H]2CC[C@H](C(=O)N3OCC[C@H]3c3cnccn3)CC2)ccc1F [compound 243, trans-2-fluoro-5-[[4-[(3S)-3-pyrazin-2-ylisoxazolidine-2-carbonyl]cyclohexyl]methyl]benzonitrile] | 13 | 3
NC(=O)c1ccc2c(cnn2C[C@H]2CC[C@H](C(=O)N3OCC[C@H]3c3cc(F)cc(F)c3)CC2)c1 [compound 73, trans-1-((4-((S)-3-(3,5-difluorophenyl)isoxazolidine-2-carbonyl)cyclohexyl)methyl)-1H-indazole-5-carboxamide] | 24 | 9
Cc1nc2c(F)cc(C[C@H]3CC[C@H](C(=O)N4OCC[C@H]4c4cnccn4)CC3)cn2n1 [compound 340, trans-[4-[(8-fluoro-2-methyl-[1,2,4]triazolo[1,5-a]pyridin-6-yl)methyl]cyclohexyl]-[(3S)-3-pyrazin-2-yl-1,2-oxazolidin-2-yl]methanone] | 25 | 77
Cc1ncn(C[C@H]2CC[C@H](C(=O)N3OCC[C@H]3c3cncc(F)c3)CC2)c1C#N [compound 4, trans-1-((4-((S)-3-(5-fluoropyridin-3-yl)isoxazolidine-2-carbonyl)cyclohexyl)methyl)-4-methyl-1H-imidazole-5-carbonitrile] | 116 | 721
N#Cc1cc(F)c2ccn(C[C@H]3CC[C@H](C(=O)N4OCC[C@H]4c4cc(F)cc(F)c4)CC3)c2c1 [compound 45, trans-1-((4-((S)-3-(3,5-difluorophenyl)isoxazolidine-2-carbonyl)cyclohexyl)methyl)-4-fluoro-1H-indole-6-carbonitrile] | 18 | 6
Cc1ccc([C@@H]2CCON2C(=O)[C@H]2CC[C@H](Cc3ccn4nc(C)nc4c3)CC2)cn1 [compound 373, trans-[(S)-3-(6-Methyl-pyridin-3-yl)-isoxazolidin-2-yl]-[4-(2-methyl-[1,2,4]triazolo[1,5-a]pyridin-7-ylmethyl)-cyclohexyl]-methanone] | 110 | 78
Cc1cc(C[C@H]2CC[C@H](C(=O)N3OCC[C@H]3c3cncc(F)c3)CC2)cn2ncnc12 [compound 336, trans-[(3S)-3-(5-fluoropyridin-3-yl)-1,2-oxazolidin-2-yl]-[4-[(8-methyl-[1,2,4]triazolo[1,5-a]pyridin-6-yl)methyl]cyclohexyl]methanone] | 17 | 10
N#Cc1cc(F)cc([C@@H]2CCON2C(=O)[C@H]2CC[C@H](Cn3ccc4ncc(O)cc43)CC2)c1 [compound 129, trans-3-fluoro-5-[(3S)-2-[4-[(6-hydroxypyrrolo[3,2-b]pyridin-1-yl)methyl]cyclohexanecarbonyl]isoxazolidin-3-yl]benzonitrile] | 29 | 7
O=c1oc2ccccc2n1C[C@H]1CC[C@H](C(=O)N2OCC[C@H]2c2cc(F)cc(F)c2)CC1 [compound 20, trans-3-((4-((S)-3-(3,5-difluorophenyl)isoxazolidine-2-carbonyl)cyclohexyl)methyl)benzo[d]oxazol-2(3H)-one] | 20 | 5
O=C1NCc2c(F)cc(C[C@H]3CC[C@H](C(=O)N4OCC[C@H]4c4cnccn4)CC3)cc21 [compound 213, trans-4-fluoro-6-[[4-[(3S)-3-pyrazin-2-ylisoxazolidine-2-carbonyl]cyclohexyl]methyl]isoindolin-1-one] | 19 | 16
Cc1cn2nc(C[C@H]3CC[C@H](C(=O)N4OCC[C@H]4c4cc(F)cc(C#N)c4)CC3)c(C)cc2n1 [compound 292, trans-3-[(3S)-2-[4-[(2,7-dimethylimidazo[1,2-b]pyridazin-6-yl)methyl]cyclohexanecarbonyl]isoxazolidin-3-yl]-5-fluoro-benzonitrile] | 14 | 4
N#Cc1cc(F)cc([C@@H]2CCON2C(=O)[C@H]2CC[C@H](Cn3cnc4ccccc43)CC2)c1 [compound 7, trans-3-((S)-2-(4-((1H-benzo[d]imidazol-1-yl)methyl)cyclohexane-1-carbonyl)isoxazolidin-3-yl)-5-fluorobenzonitrile] | 15 | 9
Cn1cc(C[C@H]2CC[C@H](C(=O)N3OCC[C@H]3c3cc(F)cc(C#N)c3)CC2)cn1 [compound 150, trans-3-fluoro-5-[(3S)-2-[4-[(1-methylpyrazol-4-yl)methyl]cyclohexanecarbonyl]isoxazolidin-3-yl]benzonitrile] | 21 | 25
Cc1ncc([C@@H]2CCON2C(=O)[C@H]2CC[C@H](Cc3cc(C)c4ncnn4c3)CC2)cc1F [compound 335, trans-[(3S)-3-(5-fluoro-6-methylpyridin-3-yl)-1,2-oxazolidin-2-yl]-[4-[(8-methyl-[1,2,4]triazolo[1,5-a]pyridin-6-yl)methyl]cyclohexyl]methanone] | 27 | 11
Cc1cn2ncc(C[C@H]3CC[C@H](C(=O)N4OCC[C@H]4c4csc(C)n4)CC3)cc2n1 [compound 371, trans-[4-(2-Methyl-imidazo[1,2-b]pyridazin-7-ylmethyl)-cyclohexyl]-[(S)-3-(2-methyl-thiazol-4-yl)-isoxazolidin-2-yl]-methanone] | 65 | 147
